Experiments:
Test in all cases: relative viability (nuclei count vs DMSO), 5 days (fraction); higher = more cells survive
CAP-232 + Navitoclax = compound: C[C@H]([C@@H](C(=O)N)NC(=O)[C@@H]1CSSC[C@@H](C(=O)N[C@H](C(=O)N[C@@H](C(=O)N[C@H](C(=O)N1)CCCCN)CC2=CNC3=CC=CC=C32)CC4=CC=C(C=C4)O)NC(=O)[C@@H](CC5=CC=CC=C5)N)O [CAP-232] + CC1(C)CCC(c2ccc(Cl)cc2)=C(CN2CCN(c3ccc(C(=O)NS(=O)(=O)c4ccc(N[C@H](CCN5CCOCC5)CSc5ccccc5)c(S(=O)(=O)C(F)(F)F)c4)cc3)CC2)C1 [Navitoclax] (partner 0.5 µM)
Method in brief: (§1)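 Medians of duplicate plates are given as relative viability. That measure is the nuclei count in treated wells divided by the count in vehicle wells. Counts were taken on 4× images of lung cancer cell lines in 1536-well plates, 5 days after pin-tool dosing the day after seeding with one drug alone or a fixed anchor-drug dose plus five library-drug doses (not always all listed) in √10 steps.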

CAP-232 + OSI-027 = compound: C[C@H]([C@@H](C(=O)N)NC(=O)[C@@H]1CSSC[C@@H](C(=O)N[C@H](C(=O)N[C@@H](C(=O)N[C@H](C(=O)N1)CCCCN)CC2=CNC3=CC=CC=C32)CC4=CC=C(C=C4)O)NC(=O)[C@@H](CC5=CC=CC=C5)N)O [CAP-232] + COc1cccc2cc(-c3nc([C@H]4CC[C@H](C(=O)O)CC4)n4ncnc(N)c34)[nH]c12 [OSI-027] (partner 0.5 µM)
Method in brief: as §1

CAP-232 + Pictilisib = compound: C[C@H]([C@@H](C(=O)N)NC(=O)[C@@H]1CSSC[C@@H](C(=O)N[C@H](C(=O)N[C@@H](C(=O)N[C@H](C(=O)N1)CCCCN)CC2=CNC3=CC=CC=C32)CC4=CC=C(C=C4)O)NC(=O)[C@@H](CC5=CC=CC=C5)N)O [CAP-232] + CS(=O)(=O)N1CCN(Cc2cc3nc(-c4cccc5[nH]ncc45)nc(N4CCOCC4)c3s2)CC1 [Pictilisib] (partner 1 µM)
Method in brief: as §1

CAP-232 + Bortezomib = compound: C[C@H]([C@@H](C(=O)N)NC(=O)[C@@H]1CSSC[C@@H](C(=O)N[C@H](C(=O)N[C@@H](C(=O)N[C@H](C(=O)N1)CCCCN)CC2=CNC3=CC=CC=C32)CC4=CC=C(C=C4)O)NC(=O)[C@@H](CC5=CC=CC=C5)N)O [CAP-232] + CC(C)C[C@H](NC(=O)[C@H](Cc1ccccc1)NC(=O)c1cnccn1)B(O)O [Bortezomib] (partner 0.002 µM)
Method in brief: as §1

CAP-232 + Lapatinib = compound: C[C@H]([C@@H](C(=O)N)NC(=O)[C@@H]1CSSC[C@@H](C(=O)N[C@H](C(=O)N[C@@H](C(=O)N[C@H](C(=O)N1)CCCCN)CC2=CNC3=CC=CC=C32)CC4=CC=C(C=C4)O)NC(=O)[C@@H](CC5=CC=CC=C5)N)O [CAP-232] + CS(=O)(=O)CCNCc1ccc(-c2ccc3ncnc(Nc4ccc(OCc5cccc(F)c5)c(Cl)c4)c3c2)o1 [Lapatinib] (partner 2 µM)
Method in brief: as §1

Cell Line	relative viability (CAP-232 + Navitoclax; first compound 0.4 µM)	relative viability (CAP-232 + Navitoclax; first compound 1.265 µM)	relative viability (CAP-232 + Navitoclax; first compound 4 µM)	relative viability (CAP-232 + Navitoclax; first compound 12.65 µM)	relative viability (CAP-232 + OSI-027; first compound 0.4 µM)	relative viability (CAP-232 + OSI-027; first compound 1.265 µM)	relative viability (CAP-232 + OSI-027; first compound 4 µM)	relative viability (CAP-232 + OSI-027; first compound 12.65 µM)	relative viability (CAP-232 + Pictilisib; first compound 0.4 µM)	relative viability (CAP-232 + Pictilisib; first compound 1.265 µM)	relative viability (CAP-232 + Pictilisib; first compound 4 µM)	relative viability (CAP-232 + Pictilisib; first compound 12.65 µM)	relative viability (CAP-232 + Bortezomib; first compound 0.4 µM)	relative viability (CAP-232 + Bortezomib; first compound 1.265 µM)	relative viability (CAP-232 + Bortezomib; first compound 4 µM)	relative viability (CAP-232 + Bortezomib; first compound 12.65 µM)	relative viability (CAP-232 + Lapatinib; first compound 0.4 µM)	relative viability (CAP-232 + Lapatinib; first compound 1.265 µM)	relative viability (CAP-232 + Lapatinib; first compound 4 µM)	relative viability (CAP-232 + Lapatinib; first compound 12.65 µM)
NCI-H838	1.21	1.19	1.28	0.556	0.342	0.434	0.461	0.314	0.439	0.357	0.475	0.345	0.916	0.643	0.86	0.544	0.976	0.974	1.14	0.499
HOP-62	0.792	0.955	1.17	0.902	1.03	0.745	0.756	0.781	0.575	–	0.741	0.84	0.924	–	1.11	0.699	1.06	–	1.33	0.996
SK-LU-1	0.911	0.998	1.12	0.863	0.329	0.342	0.308	0.332	0.605	0.547	0.651	0.462	1.53	1.04	1.2	1.3	0.869	0.809	0.8	0.979
HCC-44	1.03	0.977	1.16	1.14	0.636	0.507	0.489	0.371	0.675	0.616	0.428	0.594	1	0.864	0.948	0.893	1.14	1.03	1.05	0.987
NCI-H1915	0.825	0.75	0.771	0.766	0.566	0.601	0.672	0.325	0.878	0.852	1.01	0.914	1.1	1.05	1.06	0.95	1.04	0.957	1.04	0.982
PC-3 [JPC-3]	0.827	0.801	0.725	0.698	0.853	0.794	0.796	0.73	0.798	0.741	0.84	0.763	0.939	0.855	0.734	0.788	0.503	0.444	0.454	0.461
SW 1573	0.912	1.1	0.988	0.635	0.612	0.785	0.678	0.111	0.437	0.587	0.54	0.395	0.951	1.03	0.927	0.974	1.06	1.12	1.21	1.13
NCI-H1437	1.12	1.07	1.15	0.862	0.94	0.793	0.917	0.698	0.38	0.426	0.515	0.279	0.604	0.584	0.598	0.521	0.806	0.853	0.795	0.583
NCI-H1734	0.778	0.849	0.889	0.767	0.558	0.59	0.56	0.406	0.393	0.44	0.455	0.462	0.919	0.902	1.06	0.74	1	1	0.95	0.73
HCC-15	0.736	0.726	0.774	0.576	0.714	0.662	0.69	0.521	0.778	0.764	0.806	0.54	1.16	1	1.27	0.77	0.971	0.8	0.934	0.654
HCC-366	1.06	1.17	1.2	1.09	0.986	0.875	1.22	0.82	0.133	0.154	0.148	0.189	1.22	0.942	1.15	1	1.17	1.05	1.02	1
NCI-H2347	0.834	0.951	0.718	0.72	0.29	0.489	0.352	0.614	0.412	0.764	0.894	0.508	1.14	1.19	1.2	0.846	0.944	0.898	0.931	0.864
LXF-289	0.998	0.956	0.964	0.959	0.824	0.721	0.805	0.741	0.817	0.768	0.755	0.798	1.06	0.976	0.975	1	0.952	0.903	0.914	0.953
BEN	0.0584	0.0704	0.0685	0.0473	0.27	0.33	0.287	0.241	0.569	0.55	0.601	0.498	0.819	0.667	0.959	0.745	0.776	0.661	0.583	0.575
NCI-H2023	1.15	1	1.06	0.579	0.429	0.359	0.447	0.124	0.253	0.231	0.271	0.133	1.02	1.03	1.07	0.237	0.743	0.761	0.797	0.38
NCI-H1355	0.96	0.921	1.14	0.966	0.41	0.449	0.331	0.403	0.365	0.464	0.497	0.521	1.27	1.22	1.39	1.24	1.11	1.06	1.19	1.01
COR-L 105	0.748	0.69	0.796	0.498	0.852	0.646	0.646	0.387	0.346	0.43	0.37	0.31	0.913	0.742	0.657	0.567	0.333	0.376	0.354	0.33
NCI-H2228	0.84	0.96	0.473	1.01	0.712	0.494	0.665	0.556	0.381	0.768	0.369	0.269	0.9	0.977	1.21	0.74	1.32	0.907	1.66	0.904
PC-14	0.93	1.02	1.16	0.848	0.8	0.848	1.08	0.397	0.771	0.661	0.734	0.656	0.931	0.817	1.07	0.821	0.34	0.31	0.409	0.262
EMC-BAC-2	1.23	1.25	1.38	0.935	0.407	0.324	0.328	0.358	0.511	0.51	0.534	0.48	1.13	1.11	1.14	1.12	0.951	0.914	0.928	0.917
LU99A	1.03	0.818	0.864	0.78	0.263	0.267	0.276	0.313	0.376	0.307	0.328	0.292	1.14	1.1	1.18	1.05	0.964	1.03	1.13	1.05
RERF-LC-KJ	1.05	1.08	1.02	0.703	0.588	0.533	0.486	0.231	0.563	0.623	0.538	0.42	1.16	1.15	1.44	0.987	0.96	0.859	1.03	0.861
NCI-H596	0.839	1	1.08	0.987	0.767	0.726	0.884	0.633	0.421	0.388	0.36	0.328	1.14	1.2	0.701	0.925	1.13	1.03	1.01	0.974
LCLC-97TM1	0.408	0.294	0.397	0.366	0.437	0.523	0.601	0.486	0.217	0.193	0.232	0.193	0.83	0.765	0.856	0.555	1.13	1.15	1.05	0.946
NCI-H1993	0.961	0.864	1.15	0.907	0.604	0.539	0.544	0.492	0.887	0.935	0.977	0.768	1.26	1.07	0.966	0.896	0.877	0.791	0.915	0.673
HARA	1.14	1.16	1.13	1.21	0.436	0.554	0.613	0.44	0.401	0.432	0.358	0.26	1.2	1.2	1.13	1.17	0.717	0.613	0.691	0.732
NCI-H460	1.02	1.36	1.11	0.542	0.767	0.739	0.825	0.275	0.328	0.306	0.433	0.349	1.49	1.17	1.22	0.812	1.11	1.02	1.62	0.773
